SMILES | logP
CC(=O)C(C(=O)ON=C(C)C12CC3CC(CC(C3)C1)C2)c1ccccc1 (stereo not given) | 4.64
CCOC(=O)C=COc1ccccc1Cl | 3.55
CNC(=S)NCCSCc1cncn1C | 0.32
C#CC1(O)CCC2C3CCc4cc(O)ccc4C3C(CC)CC21C (stereo not given) | 4.28
CCCCCCCCCCCC(=O)C(C)(C)C(=O)N(C)c1c(OC)cc(OC)cc1OC | 6.67
COc1cccc(NC(=O)CN2CCCCC2)c1 | 2.71
CCOC(=O)C=COc1ccccc1 | 3.18
CCN(CC)CC(=O)NCc1ccccc1 | 2.14
O=C(Cc1ccccc1)c1ccc2n1CCC2C(=O)O (stereo not given) | 2.52
c1ccc(C2CCCN2)cc1 (stereo not given) | 1.89
CC(=O)Nc1ccccc1C(N)=O | 0.32
CCC(C(=O)OCc1ccccc1)C(CO)Cc1cncn1C (stereo not given) | 1.97
Nc1ccn(C2OC(CCl)C(O)C2O)c(=O)n1 (stereo not given) | -1.05
C=C1C(=O)OC2CC3(C)CCCC(=C)C3CC12 (stereo not given) | 3.42
CCCOC(=O)C(C(=O)OCCC)=C1SCCS1 | 3.35
COC1CC(OC2CCC3(C)C(CCC4C3CCC3(C)C(C5=CC(=O)OC5)C(O)CC43O)C2)OC(C)C1O (stereo not given) | 0.59
CN(C)N=Nc1ccc(C(=O)O)cc1 | 2.33
CCC(C(=O)OCc1ccc(C)cc1)C(COC(=O)C(C)(C)C)Cc1cncn1C (stereo not given) | 4.55
O=C1C(N2CCN(CCO)CC2)=C(N2CC2)C(=O)C(N2CCN(CCO)CC2)=C1N1CC1 | -0.77
C=CC1CCC2OC2C1 (stereo not given) | 2.08
COc1ccc(CCOC(=O)C(N)Cc2ccc(O)c(O)c2)cc1 (stereo not given) | 1.69
CCCCCCCCCCCCCC(=O)O | 6.11
COc1cccc2c1C(=O)c1c(O)c3c(c(O)c1C2=O)CC(O)(C(=O)CO)CC3OC1CC(N2CCOCC2)C(O)C(C)O1 (stereo not given) | 1.73
C=C1C(=O)OC2C=C(C)C(OC(C)=O)CC(O)C(C)=CC(OC(=O)C(C)=CC)C12 (stereo not given) | 1.16

SMILES | logP
CCC(C)CC | 3.6
CNCCc1ccccc1 | 1.91
OC(Cn1ccnc1)(c1ccc(-c2cccnc2)cc1)c1ccc(F)cc1F (stereo not given) | 3.31
CC1c2nc3ccccc3c(=O)n2CN1Cc1ccccc1 (stereo not given) | 1.72
c1ccc(-c2nc3ccccc3o2)cc1 | 3.67
Cc1cccc(C)c1NC(=O)CCN | 0.62
COC(=O)/C=C/Oc1ccccc1 | 2.68
CCOC(=O)Cn1nc2ccccc2n1 | 1.85
O=c1[nH]c2ccccc2cc1-c1ccccc1 | 2.99
O=C(COc1ccc(OCCNCC(O)COc2ccccc2)cc1)NCc1ccccc1 (stereo not given) | 3.2
CC1CC(C)(C)CC(c2ccccc2)(N2CCCCC2)C1 (stereo not given) | 6.35
Nc1cccc(I)c1 | 2.86
Oc1ccc2c(c1)CCCC2 | 2.9
c1ccc(-c2nccs2)cc1 | 2.77
COc1ncnc(NS(=O)(=O)c2ccc(N)cc2)c1OC(C)C | 1.03
Cc1cn([C@H]2CC[C@@H](CO)O2)c(=O)[nH]c1=O | -0.6
Cc1cccc(C(=O)c2ccc3n2CCC3C(=O)O)c1 (stereo not given) | 3.23
CCOC(=O)C(CC(C)C)NC(=O)CNC(=O)CNC(=O)CCCCSc1ncnc2nc[nH]c12 (stereo not given) | 1.07
CCCN1C(=O)SC(=Cc2ccc([N+](=O)[O-])o2)C1=O | 2.4
Oc1cccc2c1CCCC2 | 2.95
CC1OC(OC2C(O)CC(OC3CCC4(C)C(CCC5C4CCC4(C)C(C6=CC(=O)OC6)CCC54O)C3)OC2C)CC(O)C1O (stereo not given) | 2.15
Nc1ncnc2c1ncn2[C@H]1CC[C@@H](CO)O1 | -0.25
CCCCCCCCc1ccc(C2C(=O)c3ccccc3C2=O)cc1 | 6.93
CCCCCCCCOC(=O)c1cc(=O)[nH]c(=O)[nH]1 | 2.6

SMILES | logP
c1ccc2c(c1)ccc1cc3c(ccc4ccccc43)cc12 | 6.75
O=NN1CC=CCC1 | 1.18
CCOP(N)(=O)ON=C(C#N)c1ccccc1 (stereo not given) | 0.72
CC(C)(C)c1ccc(C2C(=O)c3ccccc3C2=O)cc1 | 4.88
CC(C)Nc1nc(Cl)nc(NC2CC2)n1 | 3.06
Cc1ccc(CCN)cc1 | 1.83
C=C1C(=O)OC2C1C(OC(=O)C=C(C)C)CC1=CC(CC3(C)OC23)OC1=O (stereo not given) | 1.05
CCCNCC(O)COc1ccc(-c2ncc(-c3cccs3)[nH]2)cc1 (stereo not given) | 2.84
c1cc2cccc3c4cccc5cccc(c(c1)c23)c54 | 6.25
OC(Cn1ccnc1)(c1ccc(F)cc1)c1cccc(-c2ccncc2)c1 (stereo not given) | 2.91
Cc1cccc(C)c1N(CCCN1CCCCC1)C(=O)Cc1ccccc1 | 5.28
CCC(=O)OC(C(=O)NC12CC3CC(CC(C3)C1)C2)c1ccccc1 (stereo not given) | 3.72
CN(C)[C@@H]1C(O)=C(C(N)=O)C(=O)[C@@]2(O)C(O)=C3C(=O)c4c(O)ccc(Cl)c4[C@@](C)(O)[C@H]3C[C@@H]12 | -0.62
O=c1[nH]nc(-c2ccccc2)c2ccccc12 | 2.48
c1ccc(-c2cc3ccccc3cn2)nc1 | 3.05
Cc1ccccc1C(OCCN(C)C)c1ccccc1 (stereo not given) | 3.77
CCCCCCC(C)(C)c1ccc(C2CCCC(O)C2)c(O)c1 (stereo not given) | 6.68
COCCc1cnc(-c2ccc(OCC(O)CNCCc3ccc(OC)c(OC)c3)cc2)[nH]1 (stereo not given) | 2.06
O=C1NC(=O)c2cc(-c3ccccc3)ccc21 | 2.97
Cc1ccc(S(=O)(=O)NC(=O)NN2CCCCC2)cc1 | 1.34
O=C(O)Cc1cccc2ccccc12 | 2.24
CCN(CC)CCNC(=O)c1ccc(N)cc1OC | 1.4
CC(C)NC(=O)COc1ccc(OCCNCC(O)COc2ccccc2)cc1 (stereo not given) | 2.4
OC1(c2ccccc2Cl)CCCCC1n1cncn1 (stereo not given) | 2.68

SMILES | logP
CC(=O)OCC1OC(n2ccc(N)nc2=O)C(OC(C)=O)C1OC(C)=O (stereo not given) | -0.8
CCNc1ccc(C(=O)OCCN(C)C)cc1 | 2.62
O=C(CN1CCCCC1)NCc1ccccc1 | 2.27
COc1ccc(CCNCC(O)COc2ccc(COCc3ncc[nH]3)cc2)cc1OC (stereo not given) | 1.29
CCN1CCCCC1 | 1.75
OC(Cn1ccnc1)(c1ccc(F)cc1)c1ccc(-c2ccccc2)cc1 (stereo not given) | 4.23
CNC(=C[N+](=O)[O-])NCCSCc1ccc(CN(C)C)o1 | 0.27
C=C(C)C(=O)OCC(CC)CCCC (stereo not given) | 4.54
c1ccc2c(c1)ccc1cccnc12 | 3.43
Cc1cccc(C)c1NC(=O)C(C)N(C)C (stereo not given) | 1.53
CCCCCCCCCCC(=O)O | 4.42
CCC(=O)OCOC(=O)c1cc(S(N)(=O)=O)c(Cl)cc1NCc1ccco1 | 2.9
CC(C)(C)c1cccc(C2C(=O)c3ccccc3C2=O)c1 | 4.88
CCN(CC)CCCCCCC(=O)Nc1c(C)cccc1C | 3.48
O=C1C=CC(=O)C(c2ccccc2)=C1 | 1.95
C=CC(=O)OCCOCCOCCOC(=O)C=C | 0.96
CCCC(=O)OCC(Cc1cncn1C)C(CC)C(=O)OCc1ccccc1 (stereo not given) | 3.78
C=C(C)C(=O)OCC(F)(F)F | 1.56
CCCCCCCCCCCC(=O)CC(=O)Nc1c(OC)cc(OC)cc1OC | 5.02
Cc1ccc(O)c(CO)c1 | 0.97
O=C(O)c1cccnc1 | 0.36
Cc1ccccc1NC1=NCCN1 | 1.28
O=[N+]([O-])c1cc(F)cc(F)c1 | 2.03
O=C1Nc2ccccc2CC1c1ccccc1 (stereo not given) | 2.93

SMILES | logP
C[C@@H]1CC2=CC(=O)CC[C@@H]2[C@H]2CC[C@@]3(C)[C@@H](CC[C@]3(C)O)[C@@H]21 | 3.19
CC(C)NCC(O)c1ccc2ccccc2c1 (stereo not given) | 3
Cc1coc2ccc3ccc(=O)oc3c12 | 2.38
O=C(O)c1ccc(Cl)cc1Nc1cccc(Cl)c1 | 5
CCOC(=O)CC[C@H](NC(=O)c1ccc(N(C)Cc2cnc3nc(N)nc(N)c3n2)cc1)C(=O)OCC | 0.98
O=C1CN=C(c2ccccc2)c2cc(Br)ccc2N1 | 3.11
CCCCCCCCCCC(C)(C)c1ccc(C2CCCC(O)C2)c(O)c1 (stereo not given) | 8.42
OC1CCCc2ccccc21 (stereo not given) | 1.98
CNC(=O)COc1ccc(OCC(O)CNC(C)C)cc1 (stereo not given) | 0.56
COc1c(OC)c(OC(C)=O)c2cc(NC(C)=O)ccc2c1OC(C)=O | 2
Oc1cc2ccccc2cc1O | 2.24
COc1ccc(COc2ccccc2C(N)=O)cc1 | 1.63
CCCN(CCC)CC(=O)NC1c2ccccc2-c2ccccc21 | 4.61
c1ccc(C2CCNCC2)cc1 | 2.39
Cc1ccc(C(=O)c2ccc(CC(=O)O)n2C)cc1 | 2.79
CC1OC(OC2CCC3(C=O)C4CCC5(C)C(C6=CC(=O)OC6)CCC5(O)C4CCC3(O)C2)C(O)C(O)C1O (stereo not given) | -0.48
CCOc1cc(Cc2cnc(N)nc2N)ccc1OC | 1.2
COc1cc(Cc2cnc(N)nc2N)c(I)c(OC)c1OC | 1.79
COC(=O)Nc1ccc(Cl)c(Cl)c1 | 3.32
COc1cc(Cc2cnc(N)nc2N)ccc1C(C)C | 3.14
CCNc1nc(Cl)nc(NC2CC2)n1 | 2.17
CCN(CC)C(C)CCCC(=O)Nc1c(C)cccc1C (stereo not given) | 2.64
CN(Cc1ccc(Cl)cc1)N=Nc1ccc(C(=O)O)cc1 | 4.85
COc1ccc(C(=O)CC(C)CC(=O)O)cc1Cl (stereo not given) | 2.6

SMILES | logP
CCCCCCCCCCCCCCCCCC(=O)O | 8.23
Nc1ccn([C@H]2C=C[C@@H](CO)O2)c(=O)n1 | -1.55
COC(=O)C1C(C=C2CCSC2=O)C1(C)C (stereo not given) | 2.33
COc1ccc(C2C(=O)c3ccccc3C2=O)cc1 | 2.88
Cc1cc(Cl)cc(C)c1NC1=NCCN1 | 2.5
ClC1=C(Cl)C2(Cl)C3C4OC4C(Cl)C3C1(Cl)C2(Cl)Cl (stereo not given) | 4.98
Nc1nc2c(ncn2C2OC(CO)C(O)C2O)c(=O)[nH]1 (stereo not given) | -1.9
O=C(O)CN1C(=O)C=CC1=O | -0.14
Nc1nc2c(ncn2COC(CO)CO)c(=O)[nH]1 | -1.66
Cc1cnc(NS(=O)(=O)c2ccc(N)cc2)nc1 | 0.34
O=c1ccc2ccc3occc3c2o1 | 2.08
CCCCn1c(=O)[nH]c(=O)c2[nH]cnc21 | 0.84
CCCCCc1ccc(CC(=O)O)cc1 | 3.75
CC(=O)c1ccc(C(O)(Cn2ccnc2)c2ccc(-c3ccncc3)cc2)cc1 (stereo not given) | 2.41
c1ccc(CC2=NCCN2)cc1 | 2.65
C=C(C)OCc1ccccc1 | 2.41
CCCCCCCCCC[N+](C)(C)C.[I-] | -0.16
CCCCCc1cc(OCCCCN)c2c(c1)OC(C)(C)C1CC=C(C)CC21 (stereo not given) | 8.38
COc1cc(S(C)=O)ccc1-c1nc2ncccc2[nH]1 (stereo not given) | 1.18
CC(=O)c1cccc(Nc2ccccc2C(=O)O)c1 | 4.07

Source: the OPERA property sets (Mansouri et al. 2018)
